A word on the MIC: it is the smallest concentration in the dilution series that meets the test's criterion for growth inhibition. A word on the IC50: it is the concentration at which inhibition is half-maximal.

The structures appear in SMILES notation. In brackets after ≈: the same amount, converted by molar mass. Some results are limits rather than exact numbers.

This note sets out measurements from patent publication US11130741B2 (Bioimics AB, priority 2016, dated 2021).

The subject of test [1] is Escherichia coli (ATCC25922). The experiment in a line: MIC, broth microdilution (CLSI), Escherichia coli ATCC25922. Conditions: ATCC25922, read-out: E. coli MIC, Table 15, NI = No inhibition. A general note: Broth dilution looks for growth in wells or tubes with falling amounts of substance.
In test [2] the test system is E. coli RNase P RNA, M1 RNA. Put plainly: Inhibition of bacterial RNase P activity, IC50 determination (cleavage of pATSerUG by M1 RNA). It counts as biochemical. The note with it: NI = No inhibition.
The test system of test [3] is Staphylococcus aureus (ATCC25923). Put plainly: MIC, broth microdilution (CLSI), Staphylococcus aureus ATCC25923. Conditions: ATCC25923, read-out: S. aureus ("Clinical") MIC.
Protocol: Initial minimal inhibitory concentration (MIC) tests were made on two bacterial strains: • Escherichia coli (ATCC25922) • Staphylococcus aureus (ATCC25923).
Minimal Inhibitory Concentration (MIC)
MIC values were determined using the standard broth microdilution procedure based on the guidelines by the Clinical and Laboratory Standards Institute (CLSI). Briefly, the compounds were dissolved in DMSO to 10 mM. They were diluted in cation-adjusted Mueller-Hinton broth (CAMHB) to four times the highest concentration tested. A serial 2-fold dilution in CAMHB was done in microdilution plates. The inoculum of bacterial strain to be tested was prepared by making a suspension of colonies from an 18 to 24 hours old plate in CAMHB. The inoculum was diluted so that, after inoculation, each well contained approximately 5×10^5 CFU/mL. To a volume of 50 μl compound in CAMHB an equal volume of inoculum was added. The tray was sealed in a plastic bag and incubated at 35° C. for 16 to 20 hours. To aid in the detection of growth the dye resazurin was added to a final concentration 0.001% and incubated at room temperature for 1 h. Reduction of resazurin, and therefore bacterial growth, was seen as a change from blue to pink.

Turning to `NCCN1CC(C(=O)Nc2cc(C(F)(F)F)cc3c2Nc2ccccc2S3)C1` [compound 196], the MIC in test [1] worked out at 52 mg/L (≈ 127 µM); in test [3] it was 26 mg/L (≈ 63.7 µM). Moreover, the IC50 in test [2] was > 100 µM.
As for `FC(F)(F)c1cc(NC2CCNCC2)c2c(c1)Sc1cc(-c3cc4ccccc4[nH]3)ccc1N2.O=C(O)C(F)(F)F` [compound 212, 7-(1H-indol-2-yl)-N-(piperidin-4-yl)-3-(trifluoromethyl)-10H-phenothiazin-1-amine trifluoroacetic Acid Salt], the MIC is > 100 mg/L in test [1] and 19 mg/L in test [3]. In addition, in test [2] (trifluoroacetic Acid Salt), the IC50 turned out to be 5 µM.
With `CN(C)CCCN1c2ccccc2Sc2cc(-c3nc4ccccc4s3)ccc21` [compound 143, 3-(3-(Benzo[d]thiazol-2-yl)-10H-phenothiazin-10-yl)-N,N-dimethylpropan-1-amine], the MIC in test [1] was > 100 mg/L; in test [3], 3 mg/L (≈ 7.18 µM). Moreover, the IC50 in test [2] was > 100 µM.
As to `NCCN1CCC(Nc2cc(C(F)(F)F)cc3c2Nc2ccc(Cl)cc2S3)CC1` [compound 226, N-(1-(2-Aminoethyl)piperidin-4-yl)-7-chloro-3-(trifluoromethyl)-10H-phenothiazin-1-amine], the MIC in test [1] stood at 14 mg/L (≈ 31.6 µM); in test [3], 4 mg/L (≈ 9.03 µM). The compound further had an IC50 in test [2] of 23 µM.
The like results for `CN(C)CCCN1c2ccccc2Sc2cc(-c3ccc4[nH]ccc4c3)ccc21` [compound 121, 3-(3-(1H-indol-5-yl)-10H-phenothiazin-10-yl)-N,N-dimethylpropan-1-amine] were, in that order, > 100 mg/L, 6 mg/L (≈ 15 µM) and > 100 µM.
The corresponding values for `NCCN1CCC(Nc2cc(C(F)(F)F)cc3c2Nc2ccc(CN)cc2S3)CC1.O=C(O)C(F)(F)F.O=C(O)C(F)(F)F` [compound 227, N-(1-(2-Aminoethyl)piperidin-4-yl)-7-(aminomethyl)-3-(trifluoromethyl)-10H-phenothiazin-1-amine bis(2,2,2-trifluoroacetate)] are 43 mg/L, 5 mg/L and 7 µM.
The like results for `O=C(Nc1cc(C(F)(F)F)cc2c1Nc1ccccc1S2)[C@H]1CCCNC1` [compound 106, N-(3-(trifluoromethyl)-10H-phenothiazin-1-yl)piperidine-3-carboxamide] were, in that order, 64 mg/L (≈ 163 µM), 32 mg/L (≈ 81.3 µM) and > 100 µM.
Take `NCCN1CCC(Nc2cc(C(F)(F)F)cc3c2Nc2ccccc2O3)CC1` [compound 206, N-(1-(2-aminoethyl)piperidin-4-yl)-3-(trifluoromethyl)-10H-phenoxazin-1-amine]: the minimal inhibitory concentration (MIC) in test [1] worked out at 50 mg/L (≈ 127 µM); in test [3], 25 mg/L (≈ 63.7 µM). The compound further had an IC50 in test [2] of 89 µM.
The like results for `CN(C)CCCN1c2ccccc2Sc2cc(-c3cc4cc(CN)ccc4[nH]3)ccc21` [compound 181, 3-(3-(5-(aminomethyl)-1H-indol-2-yl)-10H-phenothiazin-10-yl)-N,N-dimethylpropan-1-amine] were, in that order, 27 mg/L (≈ 63 µM), 7 mg/L (≈ 16.3 µM) and > 100 µM.
The corresponding values for `CN(C)CCCN1c2ccccc2Sc2cc(-c3ccnc(F)c3)ccc21` [compound 122, 3-(3-(2-fluoropyridin-4-yl)-10H-phenothiazin-10-yl)-N,N-dimethylpropan-1-amine] are > 100 mg/L, 24 mg/L (≈ 63.2 µM) and > 100 µM.
The like results for `NC1CCCC(C(=O)Nc2cc(C(F)(F)F)cc3c2Nc2cc(F)ccc2S3)C1.O=C(O)C(F)(F)F` (stereo not drawn) [compound 124, 3-Amino-N-(8-fluoro-3-(trifluoromethyl)-10H-phenothiazin-1-yl)cyclohexane carboxamide. TFA Salt] were, in that order, 35 mg/L, 17 mg/L and 59 µM.
As for `O=C(CC1CCC(F)(F)CC1)Nc1cc(C(F)(F)F)cc2c1Nc1ccccc1S2` [compound 132, 2-(4,4-difluorocyclo-hexyl)-N-(3-(trifluoromethyl)-10H-phenothiazin-1-yl)acetamide], the results for the MIC in test [1] and in test [3] were > 100 mg/L and 4 mg/L (≈ 9.04 µM), respectively. Also, the IC50 in test [2] was > 100 µM.
For the compound `N[C@H]1CCC[C@@H](C(=O)Nc2cc(C(F)(F)F)cc3c2Nc2ccccc2S3)C1` [compound 118, (1R,3S)-3-amino-N-(3-(trifluoromethyl)-10H-phenothiazin-1-yl)cyclohexane-carboxamide], the MIC is 26 mg/L (≈ 63.8 µM) in test [1] and 13 mg/L (≈ 31.9 µM) in test [3]. Also, in test [2], the IC50 was found to be 17 µM.
The like results for `NCCN1CC(Nc2cc(C(F)(F)F)cc3c2Nc2ccccc2S3)C1` [compound 208, N-(1-(2-aminoethyl)azetidin-3-yl)-3-(trifluoromethyl)-10H-phenothiazin-1-amine] were, in that order, 24 mg/L (≈ 63.1 µM), 12 mg/L (≈ 31.5 µM) and 258 µM.
Regarding `NNC(=O)c1cc(NC2CCNCC2)c2c(c1)Sc1ccccc1N2.O=C(O)C(F)(F)F` [compound 210, 1-(piperidin-4-ylamino)-10H-phenothiazine-3-carbohydrazide 2,2,2-trifluoroacetate salt], the figures for the minimal inhibitory concentration (MIC) in test [1] and in test [3] were > 100 mg/L and 60 mg/L, respectively. In test [2], the half-inhibitory concentration (IC50) was 95 µM.
With `N[C@H]1CCC[C@H](CNc2cc(C(F)(F)F)cc3c2Nc2ccccc2S3)C1.O=C(O)C(F)(F)F` [compound 187, N-(((1S,3S)-3-aminocyclohexyl)methyl)-3-(trifluoromethyl)-10H-phenothiazin-1-amine 2,2,2-trifluoroacetate], the values for the minimum inhibitory concentration (MIC) in test [1] and in test [3] were 16 mg/L and 4 mg/L, respectively. In test [2], this compound yielded an IC50 of 53 µM.
As for `NCC1CCC(CNc2cc(C(F)(F)F)cc3c2Nc2ccccc2S3)CC1` (stereo not drawn) [compound 158, N-((4-(aminomethyl)cyclohexyl)methyl)-3-(trifluoromethyl)-10H-phenothiazin-1-amine], the MIC in test [1] amounted to 52 mg/L (≈ 128 µM); in test [3] it was 3 mg/L (≈ 7.36 µM). The compound also registered an IC50 in test [2] of 53 µM.
The like results for `CN(C)CCCN1c2ccccc2Sc2cc(-c3nc4ccccc4[nH]3)ccc21` [compound 137, 3-(3-(1H-benzo[d]imidazol-2-yl)-10H-phenothiazin-10-yl)-N,N-dimethylpropan-1-amine] were, in that order, > 100 mg/L, 13 mg/L (≈ 32.5 µM) and 160 µM.
The corresponding values for `NCCCNc1cc(C(F)(F)F)cc2c1Nc1ccccc1S2` [compound 97, N1-(3-(trifluoromethyl)-10H-phenothiazin-1-yl)propane-1,3-diamine] are 8 mg/L (≈ 23.6 µM), 4 mg/L (≈ 11.8 µM) and > 100 µM.
The corresponding values for `FC(F)(F)c1cc(NC2CCNCC2)c2c(c1)Oc1ccccc1N2` [compound 169, N-(piperidin-4-yl)-3-(trifluoromethyl)-10H-phenoxazin-1-amine] are 45 mg/L (≈ 129 µM), 11 mg/L (≈ 31.5 µM) and 36 µM.
Turning to `CN(C)CCCN1c2ccccc2Sc2cc(-c3ccccc3)ccc21` [compound 110, N,N-dimethyl-3-(3-phenyl-10H-phenothiazin-10-yl)propan-1-amine], the MIC in test [1] is > 100 mg/L; in test [3], 6 mg/L (≈ 16.6 µM). In test [2], the 50% inhibitory concentration (IC50) is > 100 µM.
The corresponding values for `CN(C)CCCN1c2ccccc2Sc2cc(C3CC3)ccc21` [compound 116, 3-(3-cyclopropyl-10H-phenothiazin-10-yl)-N,N-dimethylpropan-1-amine] are > 100 mg/L, 42 mg/L (≈ 129 µM) and > 100 µM.
